# Reference: EPA's ToxRefDB 2
# Columns and labels:
# rat [1] = settings: Prenatal developmental toxicity study, sprague dawley, Oral, Gavage/Intubation, dose end: 15 GD
# rabbit = settings: Prenatal developmental toxicity study, new zealand white, Oral, Gavage/Intubation, dose end: 19 GD, group: maternal
# mouse [2] = settings: Carcinogenicity; cd1; Oral; Feed; dose end: 18 month; group: systemic; systemic / in life observation / body weight / body weight + systemic / in life observation / body weight / body weight gain
# rat [3] = settings: Subchronic oral toxicity in rodents, sprague dawley, Gavage/Intubation, dose end: 90 day
# rat [4] = settings: Combined chronic toxicity/carcinogenicity, sprague dawley, Oral, Gavage/Intubation, dose end: 104 week
# rat [5] = settings: Multigenerational reproductive toxicity study, sprague dawley, Oral, Gavage/Intubation, dose end: 2 generation
# rat [6] = settings: Carcinogenicity, fischer, Oral, Gavage/Intubation, dose end: 2 year, group: systemic
# mouse [7] = settings: Subchronic oral toxicity in rodents, b6c3f1, Gavage/Intubation, dose end: 20 week, group: systemic, systemic / pathology microscopic / liver / hyperplasia + systemic / pathology microscopic / stomach / hyperkeratosis + systemic / pathology …
# rat [8] = settings: Subchronic oral toxicity in rodents, fischer, Gavage/Intubation, dose end: 24 week, group: systemic
# rat [9] = settings: Combined chronic toxicity/carcinogenicity; sprague dawley; Oral; Gavage/Intubation; dose end: 52 week; group: systemic; systemic / pathology microscopic / stomach / [other] + systemic / pathology microscopic / stomach / carcinoma + systemic / pathology …
# mouse [10] = settings: Carcinogenicity; b6c3f1; Oral; Gavage/Intubation; dose end: 2 year; group: systemic; systemic / pathology microscopic / stomach / carcinoma + systemic / pathology microscopic / stomach / papilloma + systemic / in life …
# rat [11] = settings: Combined chronic toxicity/carcinogenicity, fischer, Oral, Gavage/Intubation, dose end: 105 week, group: systemic
# rat [12] = settings: Subchronic oral toxicity in rodents, fischer, Gavage/Intubation, dose end: 13 week, group: systemic
# mouse [13] = settings: Combined chronic toxicity/carcinogenicity, b6c3f1, Oral, Gavage/Intubation, dose end: 104 week, group: systemic
# rat [14] = settings: Fertility (Segment I), sprague dawley, Oral, Gavage/Intubation, dose end: 0 day
# rat [15] = settings: Multigenerational reproductive toxicity study, sprague dawley, Oral, Gavage/Intubation, dose end: 2 generation; remark: listed apart in the source
# mouse [16] = settings: Subchronic oral toxicity in rodents, b6c3f1, Gavage/Intubation, dose end: 13 week, group: systemic
# [17] = group: developmental, developmental / developmental malformation / ureter / distended
# [18] = group: maternal, systemic / in life observation / clinical signs / general pallor + systemic / in life observation / clinical signs / pale and/or opaque eyes…
# [19] = reproductive / offspring survival early / offspring survival early other / NOS
# [20] = group: cholinesterase, cholinesterase / cholinesterase / cholinesterase / plasma cholinesterase (che)
# [21] = group: cholinesterase, cholinesterase / cholinesterase / cholinesterase / plasma cholinesterase (che) + cholinesterase / cholinesterase / cholinesterase / brain …
# [22] = group: systemic, systemic / in life observation / clinical signs / pupillary function (dilation or constriction)
# [23] = group: systemic, systemic / in life observation / clinical signs / pupillary function (dilation or constriction) + systemic / in life observation / body …
# [24] = group: cholinesterase, cholinesterase / cholinesterase / cholinesterase / brain cholinesterase (che) + cholinesterase / cholinesterase / cholinesterase / plasma …
# [25] = group: cholinesterase, cholinesterase / cholinesterase / cholinesterase / erythrocyte cholinesterase (che)
# [26] = group: systemic, systemic / pathology microscopic / liver / adenoma/carcinoma combined
# [27] = group: offspring, developmental / offspring survival late / lactation index / lactation index + developmental / offspring survival late / viability index / …
# [28] = group: offspring, systemic / in life observation / body weight / offspring (pup) weight
# [29] = group: reproductive, reproductive / reproductive performance / estrous cycle / corpora lutea
# [30] = group: reproductive, reproductive / reproductive performance / estrous cycle / corpora lutea + reproductive / reproductive performance / fertility / fertility + …
# [31] = systemic / pathology microscopic / blood / leukemia + systemic / pathology microscopic / stomach / carcinoma + systemic / pathology …
# [32] = systemic / pathology microscopic / stomach / carcinoma + systemic / pathology microscopic / stomach / papilloma + systemic / pathology …
# [33] = systemic / in life observation / body weight / body weight gain + systemic / in life observation / mortality / mortality + systemic / …
# [34] = systemic / pathology microscopic / kidney / mineralization + systemic / pathology microscopic / kidney / nephropathy
# [35] = systemic / in life observation / body weight / body weight + systemic / pathology gross / sperm measure / sperm motility
# [36] = systemic / in life observation / body weight / body weight + systemic / pathology microscopic / pituitary gland / hyperplasia + systemic / …
# [37] = systemic / pathology microscopic / liver / eosinophilic focus + systemic / pathology microscopic / liver / clear cell focus
# [38] = systemic / pathology microscopic / liver / eosinophilic focus + systemic / pathology microscopic / liver / clear cell focus + systemic / …
# [39] = group: maternal, reproductive / reproductive performance / fertility / fertility
# [40] = group: parental, systemic / in life observation / body weight / body weight gain + systemic / in life observation / food consumption / food consumption + …
# [41] = group: parental, systemic / pathology microscopic / testes / delayed spermiation, retained spermatids + systemic / pathology microscopic / testes / immature …
# [42] = group: parental, systemic / in life observation / body weight / body weight + systemic / in life observation / body weight / dam weight + systemic / in life …
# [43] = group: parental, systemic / in life observation / water consumption / water consumption + systemic / pathology gross / sperm measure / sperm morphology
# [44] = group: reproductive, reproductive / offspring survival early / live fetuses / live fetuses
# [45] = group: reproductive, reproductive / offspring survival early / live fetuses / live fetuses + reproductive / reproductive performance / gestational length / …
# [46] = systemic / clinical chemistry / thyroxine (t4) / thyroxine (t4), total + systemic / hematology / reticulocyte / reticulocyte + systemic / …
compound,measurement,setting,value
O=C1c2ccccc2C(=O)C1C(=O)C(c1ccccc1)c1ccc(Cl)cc1 (centres undefined) [Chlorophacinone],LEL,rat [1]; [17],0.0125 mg/kg/day
same,LOAEL,rat [1]; [17],0.0125 mg/kg/day
same,NEL,rat [1]; [17],< 0.0125 mg/kg/day
same,NOAEL,rat [1]; [17],< 0.0125 mg/kg/day
same,LEL,rat [1]; [18],0.1 mg/kg/day
same,LOAEL,rat [1]; [18],0.1 mg/kg/day
same,NEL,rat [1]; [18],0.05 mg/kg/day
same,NOAEL,rat [1]; [18],0.05 mg/kg/day
same,LOAEL,rabbit; [19],0.025 mg/kg/day
same,NOAEL,rabbit; [19],0.01 mg/kg/day
same,LEL,rabbit; reproductive / offspring survival early / offspring survival early other / NOS + systemic / in life observation / clinical signs / red or …,0.025 mg/kg/day
same,NEL,"rabbit; systemic / in life observation / clinical signs / red or crusty deposits around eyes, ears, nose, or mouth + systemic / in life observation…",0.01 mg/kg/day
COC(=O)C=C(C)OP(=O)(OC)OC [Mevinphos],LEL,mouse [2],3.7 mg/kg/day
same,LOAEL,mouse [2],3.7 mg/kg/day
same,NEL,mouse [2],1.5 mg/kg/day
same,NOAEL,mouse [2],1.5 mg/kg/day
same,LEL,rat [3]; [20],0.056 mg/kg/day
same,LOAEL,rat [3]; [20],0.056 mg/kg/day
same,NEL,rat [3]; [21],0.011 mg/kg/day
same,NOAEL,rat [3]; [21],0.011 mg/kg/day
same,LEL,rat [3]; [22],0.056 mg/kg/day
same,LOAEL,rat [3]; [22],0.056 mg/kg/day
same,NEL,rat [3]; [23],0.011 mg/kg/day
same,NOAEL,rat [3]; [23],0.011 mg/kg/day
same,LOAEL,rat [4]; [24],0.35 mg/kg/day
same,NOAEL,rat [4]; [24],0.025 mg/kg/day
same,LEL,rat [4]; [25],0.025 mg/kg/day
same,NEL,rat [4]; [25],< 0.025 mg/kg/day
same,LEL,rat [4]; [26],0.6 mg/kg/day
same,LOAEL,rat [4]; [26],> 0.6 mg/kg/day
same,NEL,rat [4]; [26],0.35 mg/kg/day
same,NOAEL,rat [4]; [26],≥ 0.6 mg/kg/day
same,LEL,rat [5]; [20],0.05 mg/kg/day
same,LOAEL,rat [5]; [20],0.05 mg/kg/day
same,NEL,rat [5]; [20],< 0.05 mg/kg/day
same,NOAEL,rat [5]; [20],< 0.05 mg/kg/day
same,LOAEL,rat [5]; [27],> 0.5 mg/kg/day
same,NOAEL,rat [5]; [27],≥ 0.5 mg/kg/day
same,LEL,rat [5]; [28],0.05 mg/kg/day
same,NEL,rat [5]; [28],< 0.05 mg/kg/day
same,NEL,"rat [5]; group: parental, systemic / in life observation / clinical signs / ataxia + systemic / in life observation / clinical signs / oral discharge + systemic / in …",0.1 mg/kg/day
same,NOAEL,"rat [5]; group: parental, systemic / organ weight / ovary / relative to body weight + systemic / in life observation / body weight / body weight",0.1 mg/kg/day
same,LOAEL,"rat [5]; group: parental, systemic / organ weight / ovary / relative to body weight + systemic / organ weight / testes / absolute",0.5 mg/kg/day
same,LEL,"rat [5]; group: parental, systemic / organ weight / ovary / relative to body weight + systemic / organ weight / testes / absolute + systemic / in life observation / …",0.5 mg/kg/day
same,NEL,rat [5]; [29],0.1 mg/kg/day
same,NOAEL,rat [5]; [29],0.1 mg/kg/day
same,LEL,rat [5]; [30],0.5 mg/kg/day
same,LOAEL,rat [5]; [30],0.5 mg/kg/day
c1ccc(C2CO2)cc1 (centres undefined) [Styrene oxide],LOAEL,rat [6]; [31],> 550 mg/kg/day
same,NOAEL,rat [6]; [31],≥ 550 mg/kg/day
same,LEL,rat [6]; [32],275 mg/kg/day
same,NEL,rat [6]; [32],< 275 mg/kg/day
same,LEL,mouse [7],900 mg/kg/day
same,LOAEL,mouse [7],> 900 mg/kg/day
same,NEL,mouse [7],600 mg/kg/day
same,NOAEL,mouse [7],≥ 900 mg/kg/day
same,LOAEL,rat [8]; [33],> 3000 mg/kg/day
same,NEL,rat [8]; [33],360 mg/kg/day
same,NOAEL,rat [8]; [33],≥ 3000 mg/kg/day
same,LEL,rat [8]; systemic / pathology microscopic / liver / hyperplasia,750 mg/kg/day
same,LEL,rat [9],50 mg/kg/day
same,LOAEL,rat [9],> 250 mg/kg/day
same,NEL,rat [9],< 50 mg/kg/day
same,NOAEL,rat [9],≥ 250 mg/kg/day
same,LEL,mouse [10],375 mg/kg/day
same,LOAEL,mouse [10],> 750 mg/kg/day
same,NEL,mouse [10],< 375 mg/kg/day
same,NOAEL,mouse [10],≥ 750 mg/kg/day
O=C(O)c1cc(N=Nc2ccc(S(=O)(=O)Nc3ccccn3)cc2)ccc1O [Sulfasalazine],NOAEL,rat [11]; systemic / organ weight / kidney / absolute + systemic / pathology microscopic / kidney / hyperplasia,168 mg/kg/day
same,LOAEL,rat [11]; systemic / organ weight / kidney / absolute + systemic / pathology microscopic / kidney / hyperplasia + systemic / in life observation / …,338 mg/kg/day
same,LEL,rat [11]; [34],84 mg/kg/day
same,NEL,rat [11]; [34],< 84 mg/kg/day
same,LEL,rat [12]; [35],84 mg/kg/day
same,NEL,rat [12]; [35],< 84 mg/kg/day
same,LOAEL,rat [12]; [36],338 mg/kg/day
same,NOAEL,rat [12]; [36],169 mg/kg/day
same,LOAEL,mouse [13]; [37],675 mg/kg/day
same,NOAEL,mouse [13]; [37],< 675 mg/kg/day
same,LEL,mouse [13]; [38],675 mg/kg/day
same,NEL,mouse [13]; [38],< 675 mg/kg/day
same,LEL,rat [14]; [39],600 mg/kg/day
same,LOAEL,rat [14]; [39],> 600 mg/kg/day
same,NEL,rat [14]; [39],300 mg/kg/day
same,NOAEL,rat [14]; [39],≥ 600 mg/kg/day
same,LOAEL,rat [14]; [40],> 600 mg/kg/day
same,NOAEL,rat [14]; [40],≥ 600 mg/kg/day
same,LEL,rat [14]; [41],150 mg/kg/day
same,NEL,rat [14]; [41],< 150 mg/kg/day
same,LEL,rat [15]; [28],100 mg/kg/day
same,LOAEL,rat [15]; [28],> 400 mg/kg/day
same,NEL,rat [15]; [28],< 100 mg/kg/day
same,NOAEL,rat [15]; [28],≥ 400 mg/kg/day
same,LOAEL,rat [15]; [42],> 400 mg/kg/day
same,NOAEL,rat [15]; [42],≥ 400 mg/kg/day
same,LEL,rat [15]; [43],100 mg/kg/day
same,NEL,rat [15]; [43],< 100 mg/kg/day
same,LEL,rat [15]; [44],100 mg/kg/day
same,NEL,rat [15]; [44],< 100 mg/kg/day
same,LOAEL,rat [15]; [45],> 400 mg/kg/day
same,NOAEL,rat [15]; [45],≥ 400 mg/kg/day
same,LEL,mouse [16]; [46],675 mg/kg/day
same,NEL,mouse [16]; [46],< 675 mg/kg/day
same,LOAEL,mouse [16]; systemic / pathology microscopic / liver / hypertrophy,1350 mg/kg/day
same,NOAEL,mouse [16]; systemic / pathology microscopic / liver / hypertrophy + systemic / clinical chemistry / alanine aminotransferase (alt/sgpt) / alanine …,675 mg/kg/day
